The assay deals with P. falciparum K1 (strain resistant to chloroquine and pyrimethamine), erythrocytic stages. Nature of the assay: Plasmodium falciparum in vitro assay, [3H] hypoxanthine incorporation. Type of assay: cell-based. To be noted: Plasmodium falciparum. The method, then:
In Vitro Antimalarial Activity: Plasmodium falciparum In Vitro Assay
In vitro activity against erythrocytic stages of P. falciparum is determined using a [^3H] hypoxanthine incorporation assay. One strain resistant to chloroquine and pyrimethamine (P. falciparum K1) is used in the assays, and all test compounds are compared for activity with the standard drugs chloroquine (sigma C6628) and artemisinin (sigma-36, 159-3). Compounds are diluted in DMSO to 1 mM and added to parasite cultures incubated in RPMI 1640 medium without hypoxanthine, supplemented with HEPES (5.94 g/L), NaHCO3 (2.1 g/L), neomycin (100 U/mL), Albumax (5 g/L) and washed human red cells at 2.5% haematocrit (0.3% parasitaemia). Seven serial doubling dilutions of each compound are prepared in 96-well microtitre plates and incubated in a humidifying atmosphere at 37° C.; 4% CO2, 3% O2, 93% N2.
After 48 h, 50 μl of [3H] hypoxanthine (0.5 μCi) is added to each well of a plate. The plates are incubated for a further 24 h under the same conditions. The plates are then harvested with a Betaplate cell harvester (Wallac) and washed with distilled water. The dried filters are inserted into a plastic foil with 10 mL of scintillation fluid, and counted in a Betaplate liquid scintillation counter. IC50 values are calculated from sigmoidal inhibition curves using Microsoft Excel.

The mark [1] stands for this setting: K1, P. falciparum strain K1, [3H] hypoxanthine incorporation, read-out: IC50 (nM) on K1.

Where two headings read alike, the source gives them in different places.

By IC50 is commonly meant the point on the concentration scale where inhibition reaches its midpoint.

In the case of `CN(C)C1CCN(C(=O)C(Cc2cnn(C)c2)N(Cc2ccc(-c3ccccn3)cc2)C(=O)C=Cc2ccc(C(F)(F)F)cc2)CC1` (racemic) [Example 137], the IC50 under setting [1] was found to be 413 nM.

For the compound `CN(C)C1CCN(C(=O)C(Cc2ccn(C)n2)N(Cc2ccc(-c3ccccn3)cc2)C(=O)C=Cc2ccc(C(F)(F)F)cc2)CC1` (racemic) [Example 138], the IC50 under setting [1] amounted to 340 nM. The same measure, in the same setting: the figure for `CN(C)C1CCN(C(=O)C(Cc2cnn(C)c2)N(Cc2ccc(-c3ccncc3)cc2)C(=O)C=Cc2ccc(C(F)(F)F)cc2)CC1` (racemic) [Example 139] is 155 nM; for `CN(C)C1CCN(C(=O)C(Cc2ccn(C)n2)N(Cc2ccc(-c3ccncc3)cc2)C(=O)C=Cc2ccc(C(F)(F)F)cc2)CC1` (racemic) [Example 140] it is 191 nM.

For `CN(C)C1CCN(C(=O)C(Cc2ccnn2C)N(Cc2ccc(-c3ccncc3)cc2)C(=O)C=Cc2ccc(C(F)(F)F)cc2)CC1` (racemic) [Example 141], under setting [1], the IC50 amounted to 339 nM. Regarding `CN(C)C1CCN(C(=O)C(Cc2ccnn2C)N(Cc2ccc(-c3ccccn3)cc2)C(=O)C=Cc2ccc(C(F)(F)F)cc2)CC1` (racemic) [Example 142], the IC50 under setting [1] was found to be 460 nM.

On to `O=C(NC1CN2CCC1CC2)[C@H](Cc1ccccc1)N(Cc1ccc(-c2ccccn2)cc1)C(=O)C=Cc1ccc(C(F)(F)F)cc1` (mixture of isomers) [Example 152], for which the IC50 under setting [1] stood at 242 nM. Still for that read-out and setting: the result for `COCCN(C)C(=O)C(Cc1cnn(C)c1)N(Cc1ccc(-c2ccccn2)cc1)C(=O)C=Cc1ccc(C(F)(F)F)cc1` (racemic) [Example 164] reads 247 nM; that for `COCCN(C)C(=O)C(Cc1ccn(C)n1)N(Cc1ccc(-c2ccccn2)cc1)C(=O)C=Cc1ccc(C(F)(F)F)cc1` (racemic) [Example 165], 76 nM. For the compound `COCCN(C)C(=O)C(Cc1cnn(C)c1)N(Cc1ccc(-c2ccncc2)cc1)C(=O)C=Cc1ccc(C(F)(F)F)cc1` (racemic) [Example 166], under setting [1], the IC50 worked out at 96 nM. Take `COCCN(C)C(=O)C(Cc1ccn(C)n1)N(Cc1ccc(-c2ccncc2)cc1)C(=O)C=Cc1ccc(C(F)(F)F)cc1` (racemic) [Example 167]: the IC50 under setting [1] amounted to 41 nM.

On to `COCCN(C)C(=O)C(Cc1ccnn1C)N(Cc1ccc(-c2ccncc2)cc1)C(=O)C=Cc1ccc(C(F)(F)F)cc1` (racemic) [Example 168], for which the concentration for half-maximal inhibition (IC50) under setting [1] turned out to be 349 nM.

On to `COCCN(C)C(=O)C(Cc1ccon1)N(Cc1ccc(-c2ccncc2)cc1)C(=O)C=Cc1ccc(C(F)(F)F)cc1` (racemic) [Example 169], for which, under setting [1], the IC50 was 312 nM. Still for that read-out and setting: the result for `COCCN(C)C(=O)C(Cc1ncccn1)N(Cc1ccc(-c2ccncc2)cc1)C(=O)C=Cc1ccc(C(F)(F)F)cc1` (racemic) [Example 170] reads 192 nM; that for `COCCN(C)C(=O)C(CN1CCN(C)CC1)N(Cc1ccc(-c2ccccn2)cc1)C(=O)C=Cc1ccc(C(F)(F)F)cc1` (racemic) [Example 278], 137 nM.

For the compound `COCCN(C)C(=O)C(CN1CCOCC1)N(Cc1ccc(-c2ccccn2)cc1)C(=O)C=Cc1ccc(C(F)(F)F)cc1` (racemic) [Example 279], the IC50 under setting [1] was less than 8 nM. Consider `COCCN(C)C(=O)C(CN1CCCC1)N(Cc1ccc(-c2ccccn2)cc1)C(=O)C=Cc1ccc(C(F)(F)F)cc1` (racemic) [Example 280], for which, under setting [1], the IC50 is 219 nM. On the same count and under the same terms, the figure for `COCCN(C)C(=O)C(Cn1ccnc1)N(Cc1ccc(-c2ccccn2)cc1)C(=O)C=Cc1ccc(C(F)(F)F)cc1` (racemic) [Example 281] is 448 nM; for `COCCN(C)C(=O)C(Cn1cccc1)N(Cc1ccc(-c2ccncc2)cc1)C(=O)C=Cc1ccc(C(F)(F)F)cc1` (racemic) [Example 282] it is 35 nM; for `COCCN(C)C(=O)C(CN1C(=O)C(=O)c2ccccc21)N(Cc1ccc(-c2ccncc2)cc1)C(=O)C=Cc1ccc(C(F)(F)F)cc1` (racemic) [Example 283] it is 324 nM. The same measure, in the same setting: the result for `COCCN(C)C(=O)C(CN1CCOC1=O)N(Cc1ccc(-c2ccncc2)cc1)C(=O)C=Cc1ccc(C(F)(F)F)cc1` (racemic) [Example 284] reads 362 nM; that for `C[C@@H]1CC[C@H]2[C@@H](C)C(=O)O[C@@H]3O[C@@]4(C)CC[C@@H]1[C@]32OO4` [Artemisinin], 3 nM. Regarding `CCN(CC)CCCC(C)Nc1ccnc2cc(Cl)ccc12` (stereo not shown) [Chloroquine], the IC50 (K1, read-out: IC50 (nM) on K1) came out at 194 nM. For the compound `Cc1nn(C)c(C)c1C=CC(=O)N(Cc1ccc(N2CCOCC2)cc1)[C@@H](Cc1ccccc1)C(=O)N1CCC(N(C)C)CC1` [Example 1, (S)-N-[1-Benzyl-2-(4-dimethylamino-piperidin-1-yl)-2-oxo-ethyl]-N-(4-morpholin-4-yl-benzyl)-3-(1,3,5-trimethyl-1H-pyrazol-4-yl)-acrylamide], the IC50 under setting [1] came out at 211 nM. With `Cc1nc(C)c(C=CC(=O)N(Cc2ccc(N3CCOCC3)cc2)[C@@H](Cc2ccccc2)C(=O)N2CCC(N(C)C)CC2)s1` [Example 2, (S)-N-[1-Benzyl-2-(4-dimethylamino-piperidin-1-yl)-2-oxo-ethyl]-3-(2,4-dimethyl-thiazol-5-yl)-N-(4-morpholin-4-yl-benzyl)-acrylamide], the half-maximal inhibitory concentration (IC50) under setting [1] turned out to be 466 nM. The same measure, in the same setting: the result for `Cc1noc(C)c1C=CC(=O)N(Cc1ccc(N2CCOCC2)cc1)[C@@H](Cc1ccccc1)C(=O)N1CCC(N(C)C)CC1` [Example 3, (S)-N-[1-Benzyl-2-(4-dimethylamino-piperidin-1-yl)-2-oxo-ethyl]-3-(3,5-dimethyl-isoxazol-4-yl)-N-(4-morpholin-4-yl-benzyl)-acrylamide] reads 436 nM; that for `CN(C)C1CCN(C(=O)[C@H](Cc2ccccc2)N(Cc2ccc(N3CCOCC3)cc2)C(=O)C=Cc2ccc(C(F)(F)F)cn2)CC1` [Example 4, (S)-N-[1-Benzyl-2-(4-dimethylamino-piperidin-1-yl)-2-oxo-ethyl]-N-(4-morpholin-4-yl-benzyl)-3-(5-trifluoromethyl-pyridin-2-yl)-acrylamide], 323 nM. Same read-out and setting: the result for `COc1ccc(C=CC(=O)N(Cc2ccc(N3CCOCC3)cc2)[C@@H](Cc2ccccc2)C(=O)N2CCC(N(C)C)CC2)cn1` [Example 5, (S)-N-[1-Benzyl-2-(4-dimethylamino-piperidin-1-yl)-2-oxo-ethyl]-3-(6-methoxy-pyridin-3-yl)-N-(4-morpholin-4-yl-benzyl)-acrylamide] reads 319 nM; that for `CN(C)C1CCN(C(=O)[C@H](Cc2ccccc2)N(Cc2ccc(-c3ccccn3)cc2)C(=O)C=Cc2ccc(C(F)(F)F)cc2)CC1` [Example 6, (S)-N-[1-Benzyl-2-(4-dimethylamino-piperidin-1-yl)-2-oxo-ethyl]-N-(4-pyridin-2-yl-benzyl)-3-(4-trifluoromethyl-phenyl)-acrylamide], 54 nM.

For the compound `CN(C)C1CCN(C(=O)[C@H](Cc2ccccc2)N(Cc2ccc(-c3ccccn3)cc2)C(=O)C=Cc2ccc(C(F)(F)F)nc2)CC1` [Example 7, (S)-N-[1-Benzyl-2-(4-dimethylamino-piperidin-1-yl)-2-oxo-ethyl]-N-(4-pyridin-2-yl-benzyl)-3-(6-trifluoromethyl-pyridin-3-yl)-acrylamide], under setting [1], the IC50 amounted to 14 nM.

For the compound `Cc1cc(C=CC(=O)N(Cc2ccc(-c3ccccn3)cc2)[C@@H](Cc2ccccc2)C(=O)N2CCC(N(C)C)CC2)n(C)n1` [Example 8, (S)-N-[1-Benzyl-2-(4-dimethylamino-piperidin-1-yl)-2-oxo-ethyl]-3-(2,5-dimethyl-2H-pyrazol-3-yl)-N-(4-pyridin-2-yl-benzyl)-acrylamide], under setting [1], the IC50 was 381 nM.

Values taken from patent publication US20110224210A1, “NOVEL BIS-AMIDES AS ANTI-MALARIAL AGENTS” (priority 2008, published 2011).
